Consider 13 molecules from article PMC8151276, “An Integrated Approach toward NanoBRET Tracers for Analysis of GPCR Ligand Engagement” (Molecules, 2021).

The target in one experiment is T1, FZD9 (Homo sapiens, UniProt O00144).
T1 construct: purchased Promega (in-house HiBiT-GPCR construct library, NanoBRET)
T1 sequence (O00144 23-591): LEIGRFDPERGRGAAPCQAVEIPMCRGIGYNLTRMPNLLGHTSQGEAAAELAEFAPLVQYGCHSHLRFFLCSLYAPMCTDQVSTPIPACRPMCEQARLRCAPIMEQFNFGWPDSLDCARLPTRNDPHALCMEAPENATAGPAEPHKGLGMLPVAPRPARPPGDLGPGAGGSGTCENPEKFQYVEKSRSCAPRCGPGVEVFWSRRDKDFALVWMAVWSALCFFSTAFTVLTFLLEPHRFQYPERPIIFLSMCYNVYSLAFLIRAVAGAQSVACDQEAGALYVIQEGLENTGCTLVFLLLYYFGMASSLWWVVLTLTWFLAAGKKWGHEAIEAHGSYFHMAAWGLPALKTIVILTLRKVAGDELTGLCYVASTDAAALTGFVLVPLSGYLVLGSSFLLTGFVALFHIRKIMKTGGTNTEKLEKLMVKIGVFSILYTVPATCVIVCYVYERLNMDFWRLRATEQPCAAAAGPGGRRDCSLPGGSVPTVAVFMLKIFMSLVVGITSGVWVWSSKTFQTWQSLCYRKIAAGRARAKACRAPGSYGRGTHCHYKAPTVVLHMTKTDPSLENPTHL
Briefly: NanoBRET screen HiBiT-FZD9 in HEK293. It counts as binding. How it is done:
(§1) Each tracer candidate was screened across the entire library of HiBiT-GPCR constructs using NanoBRET as the detection modality. As depicted in Figure 4A, the specificity of interactions was evaluated through decrease in BRET due to competitive displacement of a bound tracer by excess parental compound. Each tracer was analyzed for binding to each HiBiT-GPCR fusion in the absence and in the presence of competing parental compound. Briefly, HEK293 cells were transfected with HiBiT-GPCR constructs diluted into promoterless DNA to reduce expression and maximize translocation to the cell surface. Each tracer candidate was then screened at concentrations of 1 μM and 0.1 μM across cells expressing these fusions. Cells were treated for 1.5 h with tracer either alone or in the presence of 20 μM competing parental compound (i.e., control). BRET was measured upon addition of purified LgBiT and subsequent complementation with HiBiT genetically fused to a GPCR. The specificity of interactions was assessed through a decrease in BRET signal due to competitive displacement of the bound tracer. To further gauge the robustness of these interactions, the fold response over the control (i.e., BRETtracer/BRETcontrol) was calculated. We chose a 1.5-fold response, which translates to ≥7-fold signal over noise as the minimal threshold required to score an interaction as positive. […]. Below we highlight the screening results obtained for our exemplary fluorescent tracers based on Clozapine, Amitriptyline and AZD1283.
(§2) HiBiT-GPCR DNA constructs were diluted in 10 mM Tris pH 8 to a final concentration of 0.01 μg/μL, arrayed in 96-well plates and stored at −20 °C. For transfection, HEK293 cells were suspended in Opti-MEM (without phenol red) supplemented with 2% fetal bovine serum (Seradigm) and 100 units/mL penicillin–streptomycin (Gibco) at a final concentration of 220,000 cells/mL and dispensed into white 96-well plates at 90 μL/well. Subsequent transfections and screens were carried using an Agilent Bravo Automated Liquid Handling Platform. First, the 96-well HiBiT DNA arrays were diluted 25-fold in Opti-MEM (without serum or phenol red) to a final concentration of 0.0004 μg/μL and 20 μL of the diluted DNAs were transferred into new 96-well plates. Next, promoterless carrier DNA (1 μg/μL) was diluted 25-fold (0.04 μg/μL) and then dispensed into the diluted arrays at 20 μL/well. Following brief mixing, Viafect transfection reagent (Promega) diluted 16-fold into Opti-MEM was dispensed into the plates at 40 μL/well. After mixing by pipetting, plates were incubated for 10 min on the pipetting station deck. The DNA-transfection reagent complexes were then added to plates containing cells. To facilitate the screen, 10 μL of DNA-transfection reagent complexes were added in duplicates to the top 4 and bottom 4 rows, resulting in two identical 48-well arrays per plate. Plates with transfected cells were incubated for 18–20 h at 37 °C/5% CO2. A screen of each tracer across the entire library using two different concentrations requires duplicate plates of transfected cells. Depending on the number of tracers being screened, transfections can be scaled up using the same ratios. The next day, for each tracer, four 20× screening solutions in tracer dilution buffer (Promega) were prepared: two duplicates at final concentration of 20 μM and two duplicates at a final concentration of 2 μM. A competing unmodified compound was added to one of each duplicate at a final concentration of 400 μM. The four resulting solutions were diluted 4-fold in Opti-MEM without serum or phenol red to generate 5× solutions (5 µM and 0.5 µM tracer +/− 100 μM competing compound). To screen the library, a BioTek MultiFlo FX liquid dispenser was used to dispense 22.5 µL of tracer solution to the top 4 rows and 22.5 µL tracer + competing compound solution to the 4 bottom rows. Plates were briefly mixed on an orbital shaker and incubated for 1.5 h at room temperature. […]
On the technique in general: In BRET a luciferase serves as donor, and the signal depends on an acceptor being close.

A further experiment addresses T2, LGR4 (Homo sapiens, UniProt Q9BXB1).
T2 construct: purchased Promega (in-house HiBiT-GPCR construct library, NanoBRET)
T2 sequence (Q9BXB1 25-951): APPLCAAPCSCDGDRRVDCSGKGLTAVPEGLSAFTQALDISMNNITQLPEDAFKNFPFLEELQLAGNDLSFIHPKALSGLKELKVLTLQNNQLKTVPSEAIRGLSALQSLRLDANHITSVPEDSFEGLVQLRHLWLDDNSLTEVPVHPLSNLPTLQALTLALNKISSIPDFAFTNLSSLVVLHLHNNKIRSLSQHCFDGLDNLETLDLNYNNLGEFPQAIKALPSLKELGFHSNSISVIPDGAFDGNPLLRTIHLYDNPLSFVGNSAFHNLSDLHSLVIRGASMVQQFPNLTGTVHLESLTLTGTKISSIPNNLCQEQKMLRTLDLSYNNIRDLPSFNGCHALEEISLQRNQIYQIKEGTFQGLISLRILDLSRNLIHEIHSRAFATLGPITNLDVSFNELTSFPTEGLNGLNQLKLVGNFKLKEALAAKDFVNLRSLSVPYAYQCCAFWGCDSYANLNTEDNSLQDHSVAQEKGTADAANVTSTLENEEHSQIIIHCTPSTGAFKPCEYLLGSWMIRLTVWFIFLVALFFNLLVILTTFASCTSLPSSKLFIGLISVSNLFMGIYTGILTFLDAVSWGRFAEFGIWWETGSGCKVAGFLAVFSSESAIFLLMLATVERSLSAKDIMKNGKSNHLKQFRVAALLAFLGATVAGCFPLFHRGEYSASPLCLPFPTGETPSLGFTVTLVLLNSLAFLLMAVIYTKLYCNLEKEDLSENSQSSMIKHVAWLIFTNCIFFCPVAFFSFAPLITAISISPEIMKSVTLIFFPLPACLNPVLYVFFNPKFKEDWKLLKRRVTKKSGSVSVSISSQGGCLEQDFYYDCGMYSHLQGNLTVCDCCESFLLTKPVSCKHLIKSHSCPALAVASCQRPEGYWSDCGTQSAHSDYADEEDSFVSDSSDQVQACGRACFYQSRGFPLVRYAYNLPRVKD
The experiment can be described thus: NanoBRET screen HiBiT-LGR4 in HEK293. It counts as binding. How it is done:
as §1, §2

For the molecule `COc1ccc2c(n1)c(CCNC(C)=O)cn2CCNC(=O)CCc1ccc2n1[B-](F)(F)[N+]1=C(c3ccc[nH]3)C=CC1=C2` [Azamelatonin-1-NB590], the “NanoBRET Fold Response” value at FZD9 (0.1μM tracer) was 1.17; at FZD9 (1μM tracer), 1.15; on LGR4 (0.1μM tracer), 1.20; on LGR4 (1μM tracer), 0.99.

For the molecule `CC(C)N(CC[C@H](c1ccccc1)c1cc(CCNC(=O)c2ccc(CNC(=O)CCc3ccc4n3[B-](F)(F)[N+]3=C(c5ccc[nH]5)C=CC3=C4)cc2)ccc1O)C(C)C` [Tolterodine-BZ-NB590], the “NanoBRET Fold Response” value is listed as 0.95 on FZD9 (FZD9, tracer 0.1μM); 1.04 on FZD9 (FZD9, tracer 1μM); 1.02 on LGR4 (LGR4, tracer 0.1μM); 1.02 on LGR4 (LGR4, tracer 1μM).

Regarding `O=C(CCc1ccc2n1[B-](F)(F)[N+]1=C(c3ccc[nH]3)C=CC1=C2)NCCOCCOCCNC(=O)OCCOCCN1CCN(C2=Nc3ccccc3Sc3ccccc32)CC1` [Quetiapine-a-2-NB590], the “NanoBRET Fold Response” value at FZD9 (FZD9, tracer 0.1μM) was found to be 0.84; at FZD9 (FZD9, tracer 1μM), 0.78; at LGR4 (LGR4, tracer 0.1μM) it was 1.00; at LGR4 (LGR4, tracer 1μM), 1.05.

Turning to `Cc1cc2c(s1)Nc1ccccc1N=C2N1CCN(CCCNC(=O)CCOCCOCCOCCOCCNC(=O)CCc2ccc3n2[B-](F)(F)[N+]2=C(c4ccc[nH]4)C=CC2=C3)CC1` [Olanzapine-a-2-NB590], the “NanoBRET Fold Response” value is reported as 0.95 on FZD9 (FZD9, tracer 0.1μM); 0.95 on FZD9 (FZD9, tracer 1μM); 0.98 at LGR4 (LGR4, tracer 0.1μM); 1.30 at LGR4 (LGR4, tracer 1μM).

On to `O=C(CCc1ccc2n1[B-](F)(F)[N+]1=C(c3ccc[nH]3)C=CC1=C2)NCc1ccc(C(=O)NCCOCCOCCNCC(O)COc2cccc3ccccc23)cc1` (centres unmarked) [Propranolol-3-NB590], for which the “NanoBRET Fold Response” value on FZD9 (FZD9, 0.1μM) is recorded as 0.98; at FZD9 (FZD9, 1μM), 1.09; on LGR4 (LGR4, 0.1μM), 0.97; at LGR4 (LGR4, 1μM), 1.02.

As for `CN1CCN(C2=Nc3cc(Cl)ccc3N(CC(=O)NCCOCCOCCOCCOCCNC(=O)CCc3ccc4n3[B-](F)(F)[N+]3=C(c5ccc[nH]5)C=CC3=C4)c3ccccc32)CC1` [Clozapine-c-2-NB590], the “NanoBRET Fold Response” value on FZD9 (FZD9, 0.1μM tracer) worked out at 0.95; at FZD9 (FZD9, 1μM tracer) it was 0.95; at LGR4 (LGR4, 0.1μM tracer), 0.96; at LGR4 (LGR4, 1μM tracer), 1.03.

Consider `O=C(CCc1ccc2n1[B-](F)(F)[N+]1=C(c3ccc[nH]3)C=CC1=C2)NCc1ccc(C(=O)NCCOCCC(=O)N[C@@H]2CC[C@@]3(O)[C@H]4Cc5ccc(O)c6c5[C@@]3(CCN4CC3CC3)[C@H]2O6)cc1` [Naltrexone-3-NB590], for which the “NanoBRET Fold Response” value was determined as 1.17 on FZD9 (FZD9, tracer 0.1μM); 0.96 at FZD9 (FZD9, tracer 1μM); 0.94 on LGR4 (LGR4, tracer 0.1μM); 0.87 on LGR4 (LGR4, tracer 1μM).

As for `CC(C)N(CC[C@H](c1ccccc1)c1cc(CCNC(=O)CCOCCOCCOCCOCCNC(=O)CCc2ccc3n2[B-](F)(F)[N+]2=C(c4ccc[nH]4)C=CC2=C3)ccc1O)C(C)C` [Tolterodine-2-NB590], the “NanoBRET Fold Response” value was found to be 0.96 on FZD9 (FZD9, tracer 0.1μM); 0.85 on FZD9 (FZD9, tracer 1μM); 1.12 at LGR4 (LGR4, tracer 0.1μM); 1.24 at LGR4 (LGR4, tracer 1μM).

For `Cc1nc2n(c(=O)c1CCN1CCC(c3noc4cc(F)ccc34)CC1)CCCC2OC(=O)NCCOCCOCCOCCOCCNC(=O)CCc1ccc2n1[B-](F)(F)[N+]1=C(c3ccc[nH]3)C=CC1=C2` (centres unmarked) [Risperidone-2-NB590], the “NanoBRET Fold Response” value on FZD9 (FZD9, tracer 0.1μM) is recorded as 1.00; on FZD9 (FZD9, tracer 1μM), 0.99; at LGR4 (LGR4, tracer 0.1μM) it was 0.93; on LGR4 (LGR4, tracer 1μM), 0.98.

For the molecule `O=C(CCOCCOCCOCCOCCNC(=O)CCc1ccc2n1[B-](F)(F)[N+]1=C(c3ccc[nH]3)C=CC1=C2)NCCCN1CCN(C2=Nc3cc(Cl)ccc3Nc3ccccc32)CC1` [Clozapine-a-2-NB590], the “NanoBRET Fold Response” value at FZD9 (FZD9, 0.1μM tracer) stood at 1.00; on FZD9 (FZD9, 1μM tracer) it was 1.39; on LGR4 (LGR4, 0.1μM tracer) it was 1.02; at LGR4 (LGR4, 1μM tracer), 0.99.

For `COc1ccc2[nH]c(-c3ccc(CNC(=O)CCOCCOCCOCCOCCNC(=O)CCc4ccc5n4[B-](F)(F)[N+]4=C(c6ccc[nH]6)C=CC4=C5)cc3)c(CCNC(C)=O)c2n1` [AzomelatoninICO9-2-NB590], the “NanoBRET Fold Response” value at FZD9 (0.1μM tracer) is 1.30; at FZD9 (1μM tracer), 0.94; on LGR4 (0.1μM tracer) it was 1.10; at LGR4 (1μM tracer), 1.00.

As for `CN1CCN(C2=Nc3cc(Cl)ccc3Nc3ccc(CNC(=O)CCOCCOCCOCCOCCNC(=O)CCc4ccc5n4[B-](F)(F)[N+]4=C(c6ccc[nH]6)C=CC4=C5)cc32)CC1` [Clozapine-b-2-NB590], the “NanoBRET Fold Response” value is on record as 1.02 on FZD9 (FZD9, 0.1μM tracer); 1.05 on FZD9 (FZD9, 1μM tracer); 1.00 on LGR4 (LGR4, 0.1μM tracer); 1.04 at LGR4 (LGR4, 1μM tracer).

As to `CN(C)CCC=C1c2ccccc2CCc2ccc(C(=O)NCCNC(=O)CCOCCOCCOCCOCCNC(=O)CCc3ccc4n3[B-](F)(F)[N+]3=C(c5ccc[nH]5)C=CC3=C4)cc21` [Amitriptyline-a-2-NB590], the “NanoBRET Fold Response” value at FZD9 (tracer at 0.1μM) is reported as 0.96; on FZD9 (tracer at 1μM), 1.07.
